Laboratory results: US7635572B2, “Methods for conducting assays for enzyme activity on protein microarrays” (Life Technologies Corporation, priority 2004, dated 2009)
Like-named read-outs stand apart in the source and are kept apart here.

What was measured:
[1] = molecular target: T1, plurality of kinases (Table 5) (Homo sapiens, UniProt O43318); test: Further analysis of a plurality of inhibitors and a plurality of kinases on microarray (Example IX, Table 5); type: biochemical; settings: plate G9;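 note: inhibition of each kinase by the inhibitors is given as a qualitative level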;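 for Inhibition level, CAMK2D: level 0 none or unclear then 1 little or marginal then 2 substantial inhibition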;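 for Inhibition level, LOC57118: level 0 none or unclear then 1 little or marginal then 2 substantial inhibition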;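 for Inhibition level, MAP2K4: level 0 none or unclear Level 1 marginal Level 2 substantial inhibition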;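 for Inhibition level, MAP3K7: level 0 none or unclear then 1 little or marginal then 2 substantial inhibition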
T1 sequence (O43318 1-606): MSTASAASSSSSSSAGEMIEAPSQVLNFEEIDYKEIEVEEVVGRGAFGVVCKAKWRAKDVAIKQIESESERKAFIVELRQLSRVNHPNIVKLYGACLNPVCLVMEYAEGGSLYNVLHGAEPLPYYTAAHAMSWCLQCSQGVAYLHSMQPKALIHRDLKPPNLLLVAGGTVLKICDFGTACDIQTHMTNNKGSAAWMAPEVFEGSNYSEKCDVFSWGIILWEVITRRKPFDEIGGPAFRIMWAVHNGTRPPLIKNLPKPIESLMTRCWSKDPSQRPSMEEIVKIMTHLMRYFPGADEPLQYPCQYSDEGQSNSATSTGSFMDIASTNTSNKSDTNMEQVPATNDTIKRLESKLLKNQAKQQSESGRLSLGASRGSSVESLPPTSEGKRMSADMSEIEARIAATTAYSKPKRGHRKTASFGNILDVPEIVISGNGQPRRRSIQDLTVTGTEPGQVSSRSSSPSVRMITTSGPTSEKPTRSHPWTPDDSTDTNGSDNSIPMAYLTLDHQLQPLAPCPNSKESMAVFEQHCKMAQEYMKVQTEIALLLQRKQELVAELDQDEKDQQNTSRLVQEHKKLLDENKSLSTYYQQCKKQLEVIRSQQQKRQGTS

[2] = molecular target: T2, plurality of kinases (Table 5) (Homo sapiens, UniProt P45985); test: as above; type: biochemical
T2 sequence (P45985 1-399): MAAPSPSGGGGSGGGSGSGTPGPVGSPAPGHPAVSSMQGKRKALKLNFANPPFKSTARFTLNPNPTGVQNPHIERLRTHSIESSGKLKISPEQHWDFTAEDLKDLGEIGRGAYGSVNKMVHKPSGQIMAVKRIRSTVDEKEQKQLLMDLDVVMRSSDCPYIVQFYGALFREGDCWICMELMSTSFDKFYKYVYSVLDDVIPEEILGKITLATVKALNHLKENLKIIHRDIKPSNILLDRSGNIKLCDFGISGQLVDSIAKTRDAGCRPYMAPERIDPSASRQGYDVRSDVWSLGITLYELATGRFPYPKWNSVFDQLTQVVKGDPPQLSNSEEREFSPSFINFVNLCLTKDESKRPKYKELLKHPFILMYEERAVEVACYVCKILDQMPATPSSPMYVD

[3] = molecular target: plurality of kinases (Table 5) (Homo sapiens, UniProt Q7KZI7); test: as above; type: biochemical; settings: plate C4; inhibitor 100 uM
Chain of plurality of kinases (Table 5) (Homo sapiens, UniProt Q7KZI7) (Q7KZI7 whole entry): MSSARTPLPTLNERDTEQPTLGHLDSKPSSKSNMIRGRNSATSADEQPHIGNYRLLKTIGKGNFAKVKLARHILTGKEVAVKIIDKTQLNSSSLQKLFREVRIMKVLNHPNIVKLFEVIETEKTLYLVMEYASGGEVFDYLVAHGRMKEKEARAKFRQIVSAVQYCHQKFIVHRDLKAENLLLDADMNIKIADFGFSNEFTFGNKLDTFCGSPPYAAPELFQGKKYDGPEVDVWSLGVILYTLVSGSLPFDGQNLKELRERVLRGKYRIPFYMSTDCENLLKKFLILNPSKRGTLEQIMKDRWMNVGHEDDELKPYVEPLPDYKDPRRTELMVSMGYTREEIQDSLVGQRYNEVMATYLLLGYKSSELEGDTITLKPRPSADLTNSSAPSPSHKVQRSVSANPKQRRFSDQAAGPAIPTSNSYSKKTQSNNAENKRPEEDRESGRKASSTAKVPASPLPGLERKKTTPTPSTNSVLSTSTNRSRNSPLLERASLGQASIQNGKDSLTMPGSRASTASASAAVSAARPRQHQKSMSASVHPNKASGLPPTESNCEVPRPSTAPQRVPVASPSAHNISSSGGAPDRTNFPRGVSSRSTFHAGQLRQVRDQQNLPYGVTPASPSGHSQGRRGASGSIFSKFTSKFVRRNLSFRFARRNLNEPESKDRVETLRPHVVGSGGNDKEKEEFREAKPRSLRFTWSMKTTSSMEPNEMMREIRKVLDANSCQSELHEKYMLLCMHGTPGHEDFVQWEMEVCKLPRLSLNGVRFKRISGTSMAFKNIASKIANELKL

[4] = molecular target: plurality of kinases (Table 5) (Homo sapiens, UniProt Q8IU85); test: as above; type: biochemical; settings: plate D2; inhibitor 100 uM
Chain of plurality of kinases (Table 5) (Homo sapiens, UniProt Q8IU85) (Q8IU85 whole entry): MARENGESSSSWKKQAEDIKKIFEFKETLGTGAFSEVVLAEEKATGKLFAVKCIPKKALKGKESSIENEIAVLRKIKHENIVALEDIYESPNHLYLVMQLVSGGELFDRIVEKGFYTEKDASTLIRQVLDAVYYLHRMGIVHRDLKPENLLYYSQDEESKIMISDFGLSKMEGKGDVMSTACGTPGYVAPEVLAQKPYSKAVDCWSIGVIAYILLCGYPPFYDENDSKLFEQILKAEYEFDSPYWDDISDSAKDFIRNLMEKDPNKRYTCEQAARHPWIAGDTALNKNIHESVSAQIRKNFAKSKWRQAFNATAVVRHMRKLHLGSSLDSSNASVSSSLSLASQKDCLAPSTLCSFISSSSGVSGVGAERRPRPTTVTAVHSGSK

[5] = molecular target: plurality of kinases (Table 5) (Homo sapiens, UniProt Q13557); test: as above; type: biochemical; settings: plate B1; inhibitor 100 uM
Chain of plurality of kinases (Table 5) (Homo sapiens, UniProt Q13557) (Q13557 whole entry): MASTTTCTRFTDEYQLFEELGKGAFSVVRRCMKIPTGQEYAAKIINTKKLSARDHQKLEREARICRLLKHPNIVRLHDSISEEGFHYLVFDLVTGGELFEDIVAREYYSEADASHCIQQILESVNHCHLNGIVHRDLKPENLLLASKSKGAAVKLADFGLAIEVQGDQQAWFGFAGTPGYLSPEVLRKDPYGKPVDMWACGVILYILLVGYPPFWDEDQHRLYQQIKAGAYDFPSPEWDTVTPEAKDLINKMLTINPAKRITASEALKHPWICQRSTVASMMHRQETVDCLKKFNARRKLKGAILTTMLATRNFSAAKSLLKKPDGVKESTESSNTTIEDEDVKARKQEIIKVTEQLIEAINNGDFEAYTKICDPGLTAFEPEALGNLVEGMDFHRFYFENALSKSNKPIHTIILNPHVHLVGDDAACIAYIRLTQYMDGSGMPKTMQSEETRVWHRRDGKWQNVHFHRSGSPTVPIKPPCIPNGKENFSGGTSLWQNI

EPHB3 = EPHB3 (Homo sapiens, UniProt P54753); test: Dose-response analysis on 10-well kinase microarray (Example III, FIG. 4); type: biochemical; settings: different inhibitor concentration in each well; substrate MBP, histone, casein
Chain of EPHB3 (P54753 34-998): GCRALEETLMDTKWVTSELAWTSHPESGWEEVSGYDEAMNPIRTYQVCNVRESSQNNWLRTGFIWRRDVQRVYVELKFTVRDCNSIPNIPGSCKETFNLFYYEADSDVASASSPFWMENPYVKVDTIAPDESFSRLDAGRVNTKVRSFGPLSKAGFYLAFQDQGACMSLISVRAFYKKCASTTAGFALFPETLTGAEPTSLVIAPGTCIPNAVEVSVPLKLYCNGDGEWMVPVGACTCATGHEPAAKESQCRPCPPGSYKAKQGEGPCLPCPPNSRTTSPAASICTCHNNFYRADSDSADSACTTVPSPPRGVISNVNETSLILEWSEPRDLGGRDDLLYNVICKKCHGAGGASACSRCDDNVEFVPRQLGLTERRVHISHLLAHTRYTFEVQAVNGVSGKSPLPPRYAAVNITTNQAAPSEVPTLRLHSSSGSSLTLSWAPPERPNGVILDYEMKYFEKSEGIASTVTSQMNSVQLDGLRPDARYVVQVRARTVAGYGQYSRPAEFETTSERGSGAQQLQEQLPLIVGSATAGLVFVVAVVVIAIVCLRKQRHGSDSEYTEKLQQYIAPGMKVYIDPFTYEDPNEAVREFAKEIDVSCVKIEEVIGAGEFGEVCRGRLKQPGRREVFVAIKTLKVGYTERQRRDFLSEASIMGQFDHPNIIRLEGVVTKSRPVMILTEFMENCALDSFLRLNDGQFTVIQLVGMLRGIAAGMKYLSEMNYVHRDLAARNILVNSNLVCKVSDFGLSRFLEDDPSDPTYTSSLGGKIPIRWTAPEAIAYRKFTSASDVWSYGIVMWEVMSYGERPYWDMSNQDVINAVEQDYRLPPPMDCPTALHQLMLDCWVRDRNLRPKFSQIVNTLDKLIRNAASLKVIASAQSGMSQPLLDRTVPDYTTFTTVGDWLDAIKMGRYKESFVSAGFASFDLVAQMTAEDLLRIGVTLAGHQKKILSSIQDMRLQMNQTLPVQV
Protocol: (§1) Microarrays were prepared with 10 wells/slide, wherein the kinases EPHB3, FYN, and PRKCD and their substrate were immobilized in each well. The slide was coated with substrate essentially as described in section 6.1. Subsequently, a gasket with 10 openings was applied to the surface of the slide thereby creating 10 wells, i.e., the gasket provides the barriers between the wells. The accession numbers for the different kinases in the NCBI database are: for FYN: NM_002037; for PRKCD: NM_006254; and for EPHB3: NM_004443.

PRKCD = PRKCD (Homo sapiens, UniProt Q05655); test: as above; type: biochemical; settings: different inhibitor concentration in each well; substrate MBP, histone, casein
Chain of PRKCD (Q05655 whole entry): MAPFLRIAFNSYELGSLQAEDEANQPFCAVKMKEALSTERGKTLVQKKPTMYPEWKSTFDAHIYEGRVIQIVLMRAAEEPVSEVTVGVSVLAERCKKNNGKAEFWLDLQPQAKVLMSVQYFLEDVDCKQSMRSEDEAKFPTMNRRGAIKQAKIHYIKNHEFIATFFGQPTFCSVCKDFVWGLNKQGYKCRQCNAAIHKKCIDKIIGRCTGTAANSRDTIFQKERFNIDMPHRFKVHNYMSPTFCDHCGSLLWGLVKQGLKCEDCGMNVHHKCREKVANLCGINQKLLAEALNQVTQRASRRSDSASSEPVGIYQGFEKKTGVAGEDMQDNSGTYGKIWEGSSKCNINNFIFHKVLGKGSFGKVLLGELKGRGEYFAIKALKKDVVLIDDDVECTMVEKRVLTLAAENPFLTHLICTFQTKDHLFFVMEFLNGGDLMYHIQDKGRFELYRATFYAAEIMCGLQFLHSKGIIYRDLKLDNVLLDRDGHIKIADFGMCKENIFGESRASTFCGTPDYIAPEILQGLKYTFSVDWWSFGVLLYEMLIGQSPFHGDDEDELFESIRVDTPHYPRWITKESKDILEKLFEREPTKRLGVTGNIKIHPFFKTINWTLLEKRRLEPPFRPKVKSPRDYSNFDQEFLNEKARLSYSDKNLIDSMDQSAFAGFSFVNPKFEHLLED
Protocol: as §1, with “wells.” for “wells. The accession numbers for the different kinases in the NCBI database are: for FYN: NM_002037; for PRKCD: NM_006254; and for EPHB3: NM_004443.”

39 kinases (Table 4) = test: Global specificity profiling, single point inhibition on kinase microarrays (Example VII); type: biochemical; settings: substrates histone, casein, MBP, polyEY, control 2% DMSO
Protocol: (§2) To assess the application of microarray assays for compound profiling, seven known inhibitors (see Table of inhibitors used in global specificity profiling experiment) and one control (2% DMSO) were tested on microarrays printed with a group of kinases (as well as positive and negative controls). […] Twelve spots of each kinase or control were printed on each array, and three arrays were used for each inhibitor. A mixture of generic kinase substrates (histone, casein, MBP, and polyEY) was used in the assay. The average of all signals from the same inhibitor or control experiment was calculated.
(§3) To expedite data analysis regarding the kinase families that are inhibited by a particular […], a graphical representation can be constructed of inhibition data for substrates in such a manner that phylogenetically related kinases can be spatially arranged on the graphical representation.

[6] = system: 50 different human kinases; test: Inhibitor specificity profiling on kinase microarray (Example II, FIG. 3); settings: 100 μm inhibitor; substrate mixture of MBP, histone and casein; versus control without inhibitor
Protocol: 1 mL of kinase assay buffer for every 12 glass slides to be probed is prepared. 6 μL of gamma-AT^33P (10 μCi/μL) are added to the assay buffer. The slides are placed in 50 mL conical tubes, laying flat, proteins facing up. 70 μL to 150 μL of the kinase assay buffer with gamma-AT^33P are added onto each slide. Using tweezers, the slide is covered with a hybridization slip, making sure that the solution completely covers the microarray. The conical tube is then closed and placed in a 30° C. incubator. Care should be taken that the slide is laying flat. The reaction is then incubated for 90 minutes. Subsequently, the tubes are removed from the incubator. Approximately 40 mL of dH2O are added to each tube and, using the tweezers, the hybridization slip is removed, the tube is closed and inverted several times for 1-2 minutes to rinse the slide inside the conical tube. The wash solution is then discarded. Approximately 40 mL of dH2O are added again to each tube, the tubes are closed and inverted several times for 1-2 minutes, the wash solution is discarded. The slides are then removed from the tubes and place in a slide box and centrifuged at 4000 rpm for 1-2 minutes.
A phosphor screen (suitable for ^33P) is re-activated for each membrane by exposing it to light for at least 30 minutes. […]

FYN [7] = molecular target: T3, FYN (Homo sapiens, UniProt P06241); test: Dose-response analysis on 10-well kinase microarray (Example III, FIG. 4); type: biochemical; settings: different inhibitor concentration in each well; substrate MBP, histone, casein
T3 sequence (P06241 whole entry): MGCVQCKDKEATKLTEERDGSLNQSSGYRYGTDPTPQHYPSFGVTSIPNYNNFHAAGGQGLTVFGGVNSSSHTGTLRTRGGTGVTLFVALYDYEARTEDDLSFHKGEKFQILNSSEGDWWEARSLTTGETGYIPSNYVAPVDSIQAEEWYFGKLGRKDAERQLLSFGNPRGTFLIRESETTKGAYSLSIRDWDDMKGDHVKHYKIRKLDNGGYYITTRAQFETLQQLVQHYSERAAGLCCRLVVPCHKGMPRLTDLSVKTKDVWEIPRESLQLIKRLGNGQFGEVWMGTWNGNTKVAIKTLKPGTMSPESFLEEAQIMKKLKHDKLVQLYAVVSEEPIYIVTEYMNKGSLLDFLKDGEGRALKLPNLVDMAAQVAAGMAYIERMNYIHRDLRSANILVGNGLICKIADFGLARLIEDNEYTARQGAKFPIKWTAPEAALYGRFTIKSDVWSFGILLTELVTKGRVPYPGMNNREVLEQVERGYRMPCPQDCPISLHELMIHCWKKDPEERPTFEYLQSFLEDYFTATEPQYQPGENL
Protocol: as §1, with “wells.” for “wells. The accession numbers for the different kinases in the NCBI database are: for FYN: NM_002037; for PRKCD: NM_006254; and for EPHB3: NM_004443.”

FYN [8] = molecular target: T3, FYN; test: Global specificity profiling, single point inhibition on kinase microarrays (Example VII); type: biochemical; settings: substrates histone, casein, MBP, polyEY
Protocol: as §2, §3

## N#C/C(=C/c1ccc(O)c(O)c1)C(=O)NCc1ccccc1 [AG 490]
[1]; inhibitor 100 uM
  Inhibition level, MAP3K7: 0
[2]; plate E6, inhibitor 100 uM
  Inhibition level, MAP2K4: 0
[3]
  Inhibition level, MARK2: 2
[4]
  Inhibition level, LOC57118: 1

## COc1cc2ncnc(Nc3cccc(Cl)c3)c2cc1OC [AG 1478]
[1]; inhibitor 100 uM
  Inhibition level, MAP3K7: 0
[2]; plate E6, inhibitor 100 uM
  Inhibition level, MAP2K4: 0
[3]
  Inhibition level, MARK2: 2
[4]
  Inhibition level, LOC57118: 0

## O=c1c(-c2ccc(O)cc2)coc2cc(O)cc(O)c12 [Genistein]
[1]; Genistein <3.7 mM
  Inhibition level, MAP3K7: 0
[1]; inhibitor 100 uM
  Inhibition level, MAP3K7: 1
[2]; plate E6, Genistein <3.7 mM
  Inhibition level, MAP2K4: 0
[2]; plate E6, inhibitor 100 uM
  Inhibition level, MAP2K4: 2
[3]
  Inhibition level, MARK2: 2
[4]
  Inhibition level, LOC57118: 0

## O=S(=O)(NCCNC/C=C/c1ccc(Br)cc1)c1cccc2cnccc12 [H-89]
[1]; inhibitor 100 uM
  Inhibition level, MAP3K7: 2
[2]; plate E6, inhibitor 100 uM
  Inhibition level, MAP2K4: 1
[5]
  Inhibition level, CAMK2D: 0
[3]
  Inhibition level, MARK2: 2
[4]
  Inhibition level, LOC57118: 1

## CC(C)(C)n1nc(-c2ccc(Cl)cc2)c2c(N)ncnc21 [PP2]
EPHB3
  inhibition of EPHB3 (dose-response curve): strongly inhibits
PRKCD
  inhibition of PRKCD (dose-response curve): but not the serine/threonine kinase PRKCD
39 kinases (Table 4)
  observed specificity (percentage-of-inhibition data for 39 kinases): primarily inhibited tyrosine kinases
[1]; inhibitor 100 uM
  Inhibition level, MAP3K7: 2
[2]; plate E6, inhibitor 100 uM
  Inhibition level, MAP2K4: 2
[3]
  Inhibition level, MARK2: 2
[4]
  Inhibition level, LOC57118: 0
[6]
  inhibition of tyrosine kinases: strongly inhibited

## O=c1c(O)c(-c2ccc(O)c(O)c2)oc2cc(O)cc(O)c12 [Quercetin]
[2]; plate E6, inhibitor 100 uM
  Inhibition level, MAP2K4: 0
[4]
  Inhibition level, LOC57118: 0

## Cn1cc(C2=C(c3cn(CCCSC(=N)N)c4ccccc34)C(=O)NC2=O)c2ccccc21 [Ro-31-8220]
39 kinases (Table 4)
  observed specificity (percentage-of-inhibition data for 39 kinases): more specifically targeted the serine-threonine kinases
[1]; Ro-31-8220 90 uM
  Inhibition level, MAP3K7: 2
[1]; inhibitor 100 uM
  Inhibition level, MAP3K7: 2
[2]; plate E6, Ro-31-8220 90 uM
  Inhibition level, MAP2K4: 0
[2]; plate E6, inhibitor 100 uM
  Inhibition level, MAP2K4: 1
[3]
  Inhibition level, MARK2: 2
[4]
  Inhibition level, LOC57118: 0

## CC(=O)c1c(O)c(C)c(O)c(Cc2c(O)c3c(c(C(=O)/C=C/c4ccccc4)c2O)OC(C)(C)C=C3)c1O [Rottlerin (Mallotoxin)]
[1]; inhibitor 100 uM
  Inhibition level, MAP3K7: 2
[2]; plate E6, inhibitor 100 uM
  Inhibition level, MAP2K4: 1
[5]
  Inhibition level, CAMK2D: 2
[3]
  Inhibition level, MARK2: 2
[4]
  Inhibition level, LOC57118: 0

## CN[C@@H]1C[C@H]2O[C@@](C)([C@@H]1OC)n1c3ccccc3c3c4c(c5c6ccccc6n2c5c31)C(=O)NC4 [Staurosporine]
FYN [7]
  inhibition of FYN (dose-response curve): strongly inhibits
FYN [8]
  inhibition of FYN in global specificity profiling: inhibited
[2]
  Inhibition level, MAP2K4: 0
